The target of the experiment is Ephrin type-B receptor 4 (Homo sapiens) (UniProt P54760). The experiment is described as follows: EPHB4 kinase inhibitors, dose response, biochemical, Z'-LYTE, FRET, protease-coupled, direct format (AID 1671276). Conditions: Z'-LYTE FRET peptide phosphorylation.
Sequence of Ephrin type-B receptor 4 (Homo sapiens) (P54760 whole entry, looked up): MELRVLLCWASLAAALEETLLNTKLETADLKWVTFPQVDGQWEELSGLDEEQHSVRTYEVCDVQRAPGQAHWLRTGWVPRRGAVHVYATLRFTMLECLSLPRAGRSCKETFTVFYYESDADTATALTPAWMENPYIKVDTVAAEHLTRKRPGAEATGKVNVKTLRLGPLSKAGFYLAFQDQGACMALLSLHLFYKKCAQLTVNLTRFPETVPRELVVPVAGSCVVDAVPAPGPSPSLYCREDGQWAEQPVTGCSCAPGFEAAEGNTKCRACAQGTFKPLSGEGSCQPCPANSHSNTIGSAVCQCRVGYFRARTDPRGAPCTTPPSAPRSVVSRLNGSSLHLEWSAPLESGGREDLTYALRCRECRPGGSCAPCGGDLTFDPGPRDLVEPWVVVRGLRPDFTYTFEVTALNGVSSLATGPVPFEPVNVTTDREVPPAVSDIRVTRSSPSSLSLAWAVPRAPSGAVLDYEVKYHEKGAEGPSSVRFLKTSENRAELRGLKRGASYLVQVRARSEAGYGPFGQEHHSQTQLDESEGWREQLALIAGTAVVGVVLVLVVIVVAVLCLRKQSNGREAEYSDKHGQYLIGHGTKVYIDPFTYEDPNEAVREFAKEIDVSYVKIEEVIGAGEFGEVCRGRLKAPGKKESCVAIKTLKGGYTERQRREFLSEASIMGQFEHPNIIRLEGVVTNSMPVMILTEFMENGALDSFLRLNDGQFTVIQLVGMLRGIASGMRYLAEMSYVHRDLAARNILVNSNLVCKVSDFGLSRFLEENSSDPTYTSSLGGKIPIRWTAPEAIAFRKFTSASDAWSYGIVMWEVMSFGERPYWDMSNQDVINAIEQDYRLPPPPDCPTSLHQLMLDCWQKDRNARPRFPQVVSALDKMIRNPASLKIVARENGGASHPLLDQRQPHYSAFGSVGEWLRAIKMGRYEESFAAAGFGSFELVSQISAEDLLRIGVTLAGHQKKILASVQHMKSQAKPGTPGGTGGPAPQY

On to `COc1cc2ncnc(Nc3cccc(Cl)c3)c2cc1OC`, for which the IC50 was 1.59 µM.

Values taken from PubChem BioAssay AID1671276.
